From patent publication US8747810B2, “Compositions and methods for imaging tissues, organs and tumors” (President and Fellows of Harvard College, priority 2009, dated 2014)
Where two headings read alike, the source gives them in different places.

Tests used:
[1] = test system: subcutaneous B16F10 melanoma tumor; assay: Biodistribution of 99mTc complexes in mice bearing subcutaneous B16F10 melanoma tumor; assay type: in vivo; details: for tumor uptake and retention (in words): mouse, in vivo
Source text: Biodistribution of 99 mTc complexes in mice bearing subcutaneous B16F10 melanoma tumor was studied for complexes Tc-1-Tc-6.

σ1 receptor = target: T1, σ1 receptor (Cavia porcellus, UniProt Q60492); assay: σ1 receptor competition binding assay, [3H]-(+)-pentazocine; set-up: species or system guinea pig
T1 construct: The membranes were prepared from guinea pig brain (minus cerebellum) as described above; from tissue; host or cells: guinea pig brain (minus cerebellum) membranes
T1 sequence (Q60492 whole entry): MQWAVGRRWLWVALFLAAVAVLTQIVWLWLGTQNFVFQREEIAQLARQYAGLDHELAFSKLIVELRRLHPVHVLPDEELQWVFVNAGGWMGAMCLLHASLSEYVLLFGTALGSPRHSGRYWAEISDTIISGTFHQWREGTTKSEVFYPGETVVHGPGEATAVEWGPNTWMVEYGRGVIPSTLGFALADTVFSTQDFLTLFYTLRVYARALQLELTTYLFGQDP
Experimental: […] See, Mol. Neuropharmacol. 1993, 3, 117-126.
The membranes were prepared from guinea pig brain (minus cerebellum) as described above and stored at −70° C. Twelve concentrations of the nonradioactive rhenium complexes ranging from 1×10^−11 to 1×10^−3 and protein samples (0.15 mg of membrane protein) were incubated with 5 nM [^3H]-(+)-pentazocine in a total volume of 0.25 mL of Tris-HCl (50 mM, pH 8.0). Incubations were carried out for 120 min at 25° C. All assays were terminated by dilution with 5 mL of ice-cold Tris-HCl (10 mM), pH 8.0, and solution were filtered through glass-fiber filters (Whatman GF/F; presoaked in 0.5% polyethyleneimine for 30 min at 25° C.). Filters were then washed three times with 5 mL of ice-cold Tris-HCl (50 mM, pH 8.0), and counted in Hionic-Fluor cocktail (Packard, Groningen, the Netherlands). The corresponding IC50 values were determined with Origin 6.0 software (OriginLab, Northampton, Mass.) and were used for the calculation of the apparent Ki values with the Cheng-Prusoff equation. See, Biochem. Pharmacol. 1973, 22, 3099-3108.

σ2 receptor = target: T2, σ2 receptor (Rattus norvegicus, UniProt Q5U3Y7); assay: σ2 receptor competition binding assay, [3H]-DTG, rat liver membranes
T2 construct: Rat liver membranes were prepared from male Sprague-Dawley rat livers as previously described; from tissue; host or cells: rat (Sprague-Dawley) liver membranes
T2 sequence (Q5U3Y7 1-176): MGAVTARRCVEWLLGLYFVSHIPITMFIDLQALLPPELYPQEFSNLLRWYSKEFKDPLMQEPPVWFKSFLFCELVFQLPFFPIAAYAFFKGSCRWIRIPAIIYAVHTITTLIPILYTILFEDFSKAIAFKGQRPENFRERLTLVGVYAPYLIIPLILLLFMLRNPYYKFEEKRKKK
Experimental: Rat liver membranes were prepared from male Sprague-Dawley rat livers as previously described (Eur. J. Pharmacol.-Mol. Pharmacol. Sect. 1994, 268, 9-18). The in vitro σ2 receptor binding affinities of rhenium coordinated complexes were determined in a competition assay using rat livers and [^3H]-DTG (31 Ci/mmol, NEN Life Science Inc., Cambridge, Mass.) as radioligand in the presence of 10 μM 1-pyrrolidinylethyl 3,4-dichlorophenylacetate oxalate (ACT915 oxalate) to mask σ1 receptors (Bioorg. & Med. Chem. Lett. 2000, 10, 17-18). Competition assays were performed with twelve concentrations of the nonradioactive rhenium complexes ranging from […] to 1×10^−3 and protein samples (0.15 mg of membrane protein) in a total volume of 0.25 mL of Tris-HCl (50 mM, pH 8.0) for 120 min at 25° C. All other manipulations and data analysis were performed as described vide supra for the σ1—receptor assays.

5HT1A receptor = target: T3, 5HT1A receptor (Rattus norvegicus, UniProt P19327); assay: 5HT1A receptor competition binding assay, [3H]-8-OH-DPAT, rat hippocampus
T3 construct: hippocampal homogenates that were prepared from Sprague Dawley rat hippocampus; from tissue; host or cells: rat (Sprague-Dawley) hippocampus membranes
T3 sequence (P19327 1-422): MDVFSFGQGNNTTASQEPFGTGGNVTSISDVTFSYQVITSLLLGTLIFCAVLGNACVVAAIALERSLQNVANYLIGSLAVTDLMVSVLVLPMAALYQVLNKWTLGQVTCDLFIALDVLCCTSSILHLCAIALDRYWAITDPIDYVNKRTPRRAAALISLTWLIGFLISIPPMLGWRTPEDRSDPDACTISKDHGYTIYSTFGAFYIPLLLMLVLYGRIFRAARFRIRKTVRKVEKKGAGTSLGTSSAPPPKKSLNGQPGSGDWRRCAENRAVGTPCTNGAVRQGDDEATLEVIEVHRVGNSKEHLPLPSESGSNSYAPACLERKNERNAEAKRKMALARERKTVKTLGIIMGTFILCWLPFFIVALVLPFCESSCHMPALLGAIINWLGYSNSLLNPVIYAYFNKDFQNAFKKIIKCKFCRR
Experimental: The in vitro 5HT1A binding affinities of rhenium coordinated complexes were determined in a competition assay using rat hippocampus and high-affinity 5HT1A-ligand [^3H]-8-OH-DPAT (135 Ci/mmol, NEN Life Science Inc., Cambridge, Mass.). See, Brain Res. 1995, 673, 217-225.
Male Sprague-Dawley rats (weighing 150-170 g) were sacrificed using anesthesia agent isoflurane. The brains were rapidly removed, and hippocampus, frontal cortex, hypothalamus, and striatum were hand-dissected on ice and stored at −70° C. Tissue was thawed at room temperature and homogenized using a Brinkmann Polytron tissue disrupter in 50 volumes (wt/vol) of ice-cold 50 mM Tris-HCl buffer (pH 7.4). The suspension was centrifuged twice at 27,000 g for 20 min at 4° C. The membrane pellets were resuspended in 50 volumes of (wt/vol) Tris-HCl buffer and incubated at 37° C. for 20 min in a water bath, before a final centrifugation step (27,000 g; 20 min; 4° C.). The final tissue pellets were stored at −70° C. until assayed.
Twelve concentrations of the nonradioactive rhenium complexes ranging from 1×10^−11 to 1×10^−4 and protein samples (0.15 mg of membrane protein) were incubated with 1.5 nM [^3H]-8-OH-DPAT in a total volume of 0.25 mL of Tris-HCl (50 mM, pH 7.4, 10 mM MgSO4). Incubations were carried out for 60 min at 25° C. All assays were terminated by dilution with 5 mL of ice-cold Tris-HCl (10 mM), pH 7.4, and solution were filtered through glass-fiber filters (Whatman GF/F; presoaked in 0.5% polyethyleneimine for 30 min at 25° C.). Filters were then washed three times with 5 mL of ice-cold Tris-HCl (50 mM, pH 7.4), and counted in Hionic-Fluor cocktail (Packard, Groningen, the Netherlands). The corresponding IC50 values were determined with Origin 6.0 software (OriginLab, Northampton, Mass.) and were used for the calculation of the apparent Ki values with the Cheng-Prusoff equation. See, Biochem. Pharmacol. 1973, 22, 3099-3108.
Rhenium complexes were synthesized by the reaction of [ReBr(CO)3(C4H8O)]2 with the final ligands in acetonitrile at room temperature. The in vitro 5-HT1A binding affinities of complexes Re(CO)3-L1-L9 were determined in competitive receptor binding assay using hippocampal homogenates that were prepared from Sprague Dawley rat hippocampus and the high-affinity [^3H]-8-OH-DPAT as the 5HT1A specific ligand.
The in vitro affinity of Re(CO)3-L complexes for the 5-HT1A receptors were assessed by their ability to compete with the high affinity 5HT1A radioligand [^3H]-8-OH-DPAT.

D2 receptors = D2 receptors (Homo sapiens, UniProt P14416); assay: D2 receptor affinity; assay type: binding
D2 receptors, sequence (P14416 whole entry): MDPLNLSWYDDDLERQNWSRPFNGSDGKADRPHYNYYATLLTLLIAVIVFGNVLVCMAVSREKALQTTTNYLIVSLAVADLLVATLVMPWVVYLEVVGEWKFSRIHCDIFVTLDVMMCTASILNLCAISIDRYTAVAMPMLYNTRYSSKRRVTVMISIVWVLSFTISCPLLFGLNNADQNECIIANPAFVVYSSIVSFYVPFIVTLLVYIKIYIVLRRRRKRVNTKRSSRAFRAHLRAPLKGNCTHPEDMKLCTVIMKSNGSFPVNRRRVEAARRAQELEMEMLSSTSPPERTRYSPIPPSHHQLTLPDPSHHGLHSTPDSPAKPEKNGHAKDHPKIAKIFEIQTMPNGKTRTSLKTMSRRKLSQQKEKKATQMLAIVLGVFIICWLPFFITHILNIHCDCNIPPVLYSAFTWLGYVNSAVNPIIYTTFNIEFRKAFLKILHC

[2] = quantity not named in table head, methods calculate apparent Ki (Cheng-Prusoff), read-out: σ-1
[3] = quantity not named in table head, methods calculate apparent Ki (Cheng-Prusoff), read-out: σ-2
[4] = quantity not named in table head, methods calculate apparent Ki (Cheng-Prusoff), read-out: 5HT1A

Structure (SMILES) | Ki (σ1 receptor; [2]) | Ki (σ2 receptor; [3]) | Ki (5HT1A receptor; [4]) | other results
CCN(CC)CCN(Cc1ccccn1)Cc1ccccc1[O][99Tc].[C-]#[O+].[C-]#[O+].[C-]#[O+] [99 mTc-2] | – | – | – | tumor uptake ([1]; 1 h postinjection): 3.2 % ID/g; tumor retention over a 6 h period ([1]; share of tumor uptake retained over 6 h): 65%
[99Tc][O]c1ccccc1CN(CCN1CCCCC1)Cc1ccccn1.[C-]#[O+].[C-]#[O+].[C-]#[O+] [99 mTc-3] | – | – | – | tumor uptake and retention (in words) [1]: increase in tumor retention over time
CCN(CC)CC[N+]12CC[N+](CC)(CC)[99Tc-5]1([C]#[O+])([C]#[O+])([C]#[O+])[O]c1ccccc1C2 (stereo not shown) [99 mTc-6] | – | – | – | tumor uptake and retention (in words) [1]: poor tumor uptake and retention
O=C1C[S][Re-]23(=[O])[S]CC[N+]2(CCCCCCN2CCC(c4ccccc4)CC2)CC[N]13 (stereo not shown) [Re-32] | 29.7 ± 4.31 nM | 223 ± 6.54 nM | – | –
O=C1C[S][Re-]23(=[O])[S]CC[N+]2(CCCCCCCN2CCC(c4ccccc4)CC2)CC[N]13 (stereo not shown) [Re-33] | – | – | – | Ki (σ1 receptor): 22.9 ± 1.78 nM; Ki (σ2 receptor): 188 ± 18.8 nM
O=C1CN(CCCCCCN2CCC(c3ccccc3)CC2)CC[S][Re]2(=[O])[S]CC[N]12 (stereo not shown) [Re-40] | 30 ± 6.3 nM | 43.4 ± 0.99 nM | – | –
O=C1C[N+]2(CCCCCCCN3CCC(c4ccccc4)CC3)CC[S][Re-]23(=[O])[S]CC[N]13 (stereo not shown) [Re-41] | – | – | – | Ki (σ1 receptor): 7.6 ± 0.67 nM; Ki (σ2 receptor): 21.25 ± 0.19 nM
COc1cc2c(cc1OC)CN(CCCCCCN1CC[S][Re]3(=[O])[S]CC[N]3C(=O)C1)CC2 (stereo not shown) [Re-42] | 672 ± 17.6 nM | 12.1 ± 0.61 nM | – | –
COc1cc2c(cc1OC)CN(CCCCCCN1CC[S][Re]3(=[O])[S]CC[N]3C(=O)C1)C2 (stereo not shown) [Re-43] | 1480 ± 227 nM | 11.5 ± 0.2 nM | – | –
O=C1CN(CCCCCCN2Cc3ccccc3C2)CC[S][Re]2(=[O])[S]CC[N]12 (stereo not shown) [Re-44] | 64 ± 5.9 nM | 61 ± 3.91 nM | – | –
CCCN(CCCCCCN1CC[S][Re]2(=[O])[S]CC[N]2C(=O)C1)C1CCc2cccc(O)c2C1 (stereo not shown) [Re-45-HO] | – | – | 0.42 ± 0.08 nM | –
CCCN(CCCCCC[N+]12CC[S][Re-]13(=[O])[S]CC[N]3C(=O)C2)C1CCc2cccc(OC)c2C1 (stereo not shown) [Re-45] | – | – | – | Ki (σ1 receptor): 41 ± 3.58 nM; Ki (D2 receptors): 1200 nM; Ki (5HT1A receptor): 1.21 ± 0.13 nM; Ki (σ2 receptor): 442 ± 106 nM
CCCN(CCCN1CC[S][Re]2(=[O])[S]CC[N]2C(=O)C1)C1CCc2c(O)cccc2C1 (stereo not shown) [Re-46 HO] | – | – | 81.4 ± 5.24 nM | –
CCCN(CCCN1CC[S][Re]2(=[O])[S]CC[N]2C(=O)C1)C1CCc2c(cccc2OC)C1 (stereo not shown) [Re-46] | – | – | 91.3 ± 4.1 nM | –
CCCN(CCCCCCN1CC[S][Re]2(=[O])[S]CC[N]2C(=O)C1)C1CCc2c(O)cccc2C1 (stereo not shown) [Re-47 HO] | – | – | 26 ± 2.71 nM | –
CCCN(CCCCCCN1CC[S][Re]2(=[O])[S]CC[N]2C(=O)C1)C1CCc2c(cccc2OC)C1 (stereo not shown) [Re-47] | 64.3 ± 1.27 nM | 244 ± 8.56 nM | 15.4 ± 4.06 nM | –
COc1ccccc1N1CCN(CCC[N+]23Cc4ccccc4[O][Re-5]2([C]#[O+])([C]#[O+])([C]#[O+])[n+]2ccccc2C3)CC1 (stereo not shown) [Re-L1] | – | – | – | Ki (5HT1A receptor; Example 62, Re(CO)3-L complexes, [3H]-8-OH-DPAT, rat hippocampal homogenates, read-out: Ki, 5-HT1A receptor affinity): 83.2 ± 2.2 nM
COc1ccccc1C1CCN(CCCCCC[N+]23Cc4ccccc4[O][Re-2]2(=[C]=O)(=[C]=O)(=[C]=O)[n+]2ccccc2C3)CC1 (stereo not shown) [Re-L11] | – | – | 120 ± 21 nM | –
COc1cc2c(cc1OC)CN(CCCCCC[N+]13Cc4ccccc4[O][Re-2]1(=[C]=O)(=[C]=O)(=[C]=O)[n+]1ccccc1C3)CC2 (stereo not shown) [Re-L12] | 4400 ± 280 nM | 3.37 nM | 940 ± 216 nM | –
COc1cc2c(cc1OC)CN(CCCCCC[N+]13Cc4ccccc4[O][Re-2]1(=[C]=O)(=[C]=O)(=[C]=O)[n+]1ccccc1C3)C2 (stereo not shown) [Re-L13] | 5310 ± 973 nM | 35.6 ± 2.83 nM | – | –
O=[C]=[Re-2]12(=[C]=O)(=[C]=O)[NH2+]CC[N+]1(CCCCCCN1CCC(c3ccccc3)CC1)Cc1ccccc1[O]2 (stereo not shown) [Re-L16a] | 39.3 ± 1.43 nM | 223 ± 8.78 nM | 629 ± 12 nM | –
C[N+]1(C)CC[N+]2(CCCCCCN3CCC(c4ccccc4)CC3)Cc3ccccc3[O][Re-2]12(=[C]=O)(=[C]=O)=[C]=O (stereo not shown) [Re-L16b] | 9.12 ± 0.14 nM | 6420 ± 387 nM | 439 ± 121 nM | –
COc1ccccc1C1CCN(CCCCCC[N+]23CC[NH2+][Re-2]2(=[C]=O)(=[C]=O)(=[C]=O)[O]c2ccccc2C3)CC1 (stereo not shown) [Re-L17a] | – | – | 48 ± 5 nM | –
COc1ccccc1C1CCN(CCCCCC[N+]23CC[N+](C)(C)[Re-2]2(=[C]=O)(=[C]=O)(=[C]=O)[O]c2ccccc2C3)CC1 (stereo not shown) [Re-L17b] | – | – | 18 ± 8 nM | –
[99Tc][O]c1ccccc1CN(CCCN1CCCCC1)Cc1ccccn1.[C-]#[O+].[C-]#[O+].[C-]#[O+] [Tc-4] | – | – | – | tumor uptake and retention (in words) [1]: increase in tumor retention over time
[99Tc][O]c1ccccc1CN(CCCCCCN1CCCCC1)Cc1ccccn1.[C-]#[O+].[C-]#[O+].[C-]#[O+] [Tc-5] | – | – | – | tumor uptake and retention (in words) [1]: increase in tumor retention over time
